Test results published in patent US20250382298A1, “NITROGEN-CONTAINING COMPOUND AND USE THEREOF” (SUZHOU GENHOUSE BIO CO., LTD., priority 2022, published 2025).
Like-named read-outs stand apart in the source and are kept apart here.

What was measured:
[1] = test system: OVCAR3 cells; assay: Detection of OVCAR3 cell proliferation activity by CTG method; assay type: cell-based; details: Homo sapiens, OVCAR-3, 168 h, CellTiter-Glo, 7 days
Source text: (§1) This assay can be used to examine the potency of compounds in inhibiting the proliferation of tumor cells (OVCAR3, HT-29, BT-549, HCT-116). A lower IC50 value indicates high potency of the compound as a KIF18A inhibitor in the following assay setup,
1640 medium; fetal bovine serum; penicillin/streptomycin antibiotics purchased from Wisent; CellTiter-Glo (chemiluminescence detection reagent for cell viability) reagent purchased from Promega; OVCAR3 cell line purchased from Nanjing Cobioer Biosciences Co., Ltd.; Nivo multimode microplate reader (PerkinElmer),
OVCAR3 cells were seeded into a white 96-well plate, with 80 μL of cell suspension containing 2000 OVCAR3 cells added to each well. The cell plate was incubated in a CO2 incubator overnight.
A test compound was 5-fold diluted to the 8th concentration (i.e., from 2 mM to […]) using a multichannel pipette, with duplicate wells set up. To an intermediate plate was added 78 μL of medium, and the serially diluted compound was transferred to the corresponding wells of the intermediate plate at 2 μL/well. The mixture was mixed well and then transferred to the cell plate at 20 μL/well. The concentration of the compound transferred to the cell plate ranged from 10 μM to 0.026 nM. The cell plate was incubated in a CO2 incubator for 7 days. Another cell plate was prepared and read for signal values on the day of compound addition, and these values were used as the maximum values (the Max value in the equation below) in data analysis. To this cell plate was added the chemiluminescence detection reagent for cell viability at 25 μL/well, and the luminescence signals were stabilized by incubation at room temperature for 10 min. Readings were taken using the multimode microplate reader.
To the cell plate was added the chemiluminescence detection reagent for cell viability at 25 μL/well, and the luminescence signals were stabilized by incubation at room temperature for 10 mm. Readings were taken using the multimode microplate reader, […]

[2] = test system: HCT-116 cells; assay: Mitotic index analysis, pH3 expression in HCT-116 cells; assay type: cell-based; details: 24 h treatment
Method: (§2) HCT-116 and HT-29 cells at the logarithmic growth phase were taken, digested with a cell lysis buffer (trypsin), centrifuged, counted, and seeded into a 96-well plate at an appropriate cell density (20000 cells/well), with 100 μL per well. The surrounding wells were filled with an appropriate amount of PBS to prevent water evaporation. The next day, the cells were treated with the compounds at different concentrations (with a starting concentration of 10 μM, 3-fold diluted to obtain 9 concentration gradients). After 24 h, the medium was aspirated, and the cells were washed twice with 100 μL of PBS. The cells were then fixed with 4% paraformaldehyde and incubated at room temperature for 15 min. The fixative solution was discarded, and the cells were washed with PBS. Then, 150 μL of specialized blocking solution (containing 1% Triton-100) was added to each well for blocking at room temperature for 2 h, and the plate was washed with PBS to remove excess blocking solution. Anti-phistone H3 (pH3) was diluted at a ratio of 1:1000 with a blocking solution containing 0.033% Triton-100, and a blank control group was set up. Then, incubation was performed at 4° C. overnight. The next day, the plate was washed twice with 1×PBST. Anti-rabbit-IgG (H+L) (CST) and DRAQ5 (Thermofisher) were each diluted at an appropriate ratio with a blocking solution containing 0.033% Triton-100 (secondary antibody: 1:2000; DRAQ5: 1:10000). Then, incubation was performed at room temperature for 2 h. The plate was washed twice with 1×PBST and once with PBS. Fluorescence signals at 700 nm and 800 nm were detected using a Li—COR Odyssey two-color near-infrared laser imager. Calculation was performed as follows: pH3 expression (%)=(Cmpd dose/DMSO control)×100. Cmpd dose is the value of the drug treatment group, and DMSO control is the value of the DMSO control group. The EC50 values were determined by fitting using the GraphPad Prism 7.0 software.

[3] = test system: HT-29 cells; assay: Detection of cell proliferation activity by CCK8 method (HT-29); assay type: cell-based, human; details: Homo sapiens, CCK8, 96 h
Source text: as §1
(§3) McCoy's 5A medium purchased from Sangon Biotech; CCK8 kit purchased from Beyotime; OVCAR3, HT-29, HCT-116, and BT-549 cells purchased from Shanghai Fuheng Biotechnology Co., Ltd.; multimode microplate reader (Thermo).
(§4) Cells at the logarithmic growth phase were taken, digested with a cell lysis buffer (trypsin), centrifuged, counted, and seeded into a 96-well plate at an appropriate cell density (BT549: 1500 cells/well in 1640 medium. HT-29 and HCT-116: 2000 cells/well in McCoy's 5A medium), with 180 μL per well, for a total of 60 wells. The surrounding wells were filled with an equal amount of PBS to prevent water evaporation from the edge wells. The next day after cell plating, the test compounds at different concentration gradients (with an initial final concentration of 10 μM, diluted in a 1:5 gradient to obtain 9 concentration gradients) were added to the wells. Three replicate wells were set up for each concentration point, and a corresponding DMSO negative control group was also set up. Detection: After 96 h of drug treatment, the test cell culture plate was removed from the incubator. All the liquid in the 96-well plate was aspirated, and 100 μL of medium containing 10% CCK8 solution was added to each well. The plate was then incubated at 37° C. for 2 h (the OD450 of the DMSO group reached 1.5 or more), and the absorbance at 450 nm was measured using a microplate reader
(§5) After the background value was subtracted from the measurement for each well, the inhibition rate was calculated. Inhibition Rate (%)=(1−Sample/Vehicle)×100. Sample is the luminescence value of the drug treatment group, and Vehicle is the luminescence value of the DMSO control group. A sigmoidal dose-survival rate curve was plotted using a non-linear regression model in the GraphPad Prism 7.0 software, and the IC50 values were calculated.

[4] = test system: HCT-116 cells; assay: Detection of cell proliferation activity by CCK8 method (HCT-116); assay type: cell-based; details: CCK8, 96 h
Source text: as §1, §3, §4, §5

[5] = test system: BT-549 cells; assay: Detection of cell proliferation activity by CCK8 method (BT-549); assay type: cell-based; details: CCK8, 96 h
Source text: as §1, §3, §4, §5

[6] = test system: HT-29 cells; assay: Mitotic index analysis, pH3 expression in HT-29 cells; assay type: cell-based, human; details: Homo sapiens, 24 h treatment
Method: as §2

[7] = test system: OVCAR3 cells; assay: Detection of cell proliferation activity by CCK8 method (OVCAR3); assay type: cell-based
Source text: as §1, §3, §4, §5

[8] = Pharmacokinetic test in mice; assay type: in vivo; details: BALB/c mice; for AUC / Cmax / half-life: mouse, plasma; for half-life: read-out: t½ (converted)
Method: In this example, the pharmacokinetic behavior of the compounds after intravenous injection (IV) and intragastric (PO) administration in BALB/c mice was tested.
On the day of administration, mice were weighed for actual body weight and the administration volume was calculated. Each compound was tested in two groups with 9 mice in each group; one group was subjected to administration by single intravenous injection, and the other group of mice was subjected to single intragastric administration. Whole blood samples were collected via the orbit at prescribed time points (0.25 h, 0.5 h, 1 h, 2 h, 4 h, 8 h, and 24 h after administration). After blood sample collection, the samples were immediately transferred to labeled commercial sample tubes containing K2-EDTA (0.85-1.15 mg), followed by centrifugation (3200×g, 4° C., 10 min) and plasma collection. The plasma was transferred to a pre-cooled centrifuge tube, frozen in dry ice, and then stored in an ultra-low temperature freezer at −60° C. or lower until the LC-MS/MS analysis.
Plasma concentrations were determined by the LC-MS/MS method. Plasma drug concentration data for the compounds were processed using a non-compartmental model in the WinNonlin Version 6.3 (Pharsight, Mountain View, CA) pharmacokinetic software. The relevant pharmacokinetic parameters were calculated by a linear-log trapezoidal method.

[9] = molecular target: KIF18A (Homo sapiens (Human), UniProt Q8NI77); assay: KIF18A enzymatic activity inhibition, ADP-Glo kit; assay type: biochemical; details: 4 nM KIF18A, 30 μM ATP
Method: In this experiment, an ADP-Glo kit was used to detect the inhibitory activity of the compounds against KIF18A. Each compound was prepared into a 10 mM stock solution with DMSO, which was then diluted at 1:5 to obtain 9 gradients with the initial final concentration set at 10 μM. Meanwhile, a control group and a blank group were also set up. The reaction buffer consisted of 15 mM Tris (pH 7.5), 10 mM MgCl2, and 0.01% Pluronic F-68. 4 nM KIF18A (1467) and the test compound were added to a 384-well plate and incubated at 37° C. for 20 mm. Then, 30 μM ATP was added to initiate the enzymatic reaction, and the plate was incubated at room temperature for 15 min. Finally, the ADP-Glo reagent was added to detect the luminescence intensity, where the luminescence intensity is directly proportional to the ADP content. Inhibition rate (%)=[…]. Sample signal is the value of the compound group, and DMSO signal is the value of the DMSO control group. Then, the inhibition rate at each concentration was calculated, and the IC50 was determined by fitting using the GraphPadPrism 7.0 software.

[10] = Homo sapiens, OVCAR-3, CCK8, 96 h

Sequence of KIF18A (Q8NI77 1-467): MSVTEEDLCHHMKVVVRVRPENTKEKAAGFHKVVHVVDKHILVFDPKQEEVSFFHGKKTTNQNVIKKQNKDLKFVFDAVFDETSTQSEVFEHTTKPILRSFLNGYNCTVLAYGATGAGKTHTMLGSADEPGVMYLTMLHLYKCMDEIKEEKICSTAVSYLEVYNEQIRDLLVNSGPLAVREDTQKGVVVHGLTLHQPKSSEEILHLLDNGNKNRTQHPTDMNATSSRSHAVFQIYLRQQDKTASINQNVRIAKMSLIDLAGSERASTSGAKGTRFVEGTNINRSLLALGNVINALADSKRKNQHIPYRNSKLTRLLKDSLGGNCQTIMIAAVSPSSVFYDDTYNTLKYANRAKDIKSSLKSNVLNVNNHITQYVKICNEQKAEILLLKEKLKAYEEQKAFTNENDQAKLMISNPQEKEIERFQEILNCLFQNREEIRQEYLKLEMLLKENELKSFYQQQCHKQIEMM

Structure (SMILES)	IC50 [1] [nM]	EC50 ([2]; Homo sapiens) [nM]	IC50 [3] [nM]	IC50 ([4]; Homo sapiens) [nM]	IC50 ([5]; Homo sapiens) [nM]	EC50 [6] [nM]	IC50 [7, 10] [nM]	also measured
Cc1cc(NC(=O)c2ccc(NS(=O)(=O)CCO)cc2N2CC3CC(C3)C2)nc(N2CCC(F)(F)CC2)n1 [Compound 4]	186	–	–	–	–	–	–	–
O=C(Nc1cc2ccccc2c(N2CCC(F)(F)CC2)n1)c1ccc(NS(=O)(=O)CCO)cc1N1CC2CCC(C2)C1 [Compound 9]	122	–	–	–	–	–	–	–
O=C(Nc1cn2ccnc2c(N2CC3CCC(C3)C2)n1)c1ccc(NS(=O)(=O)CCO)cc1N1CCC2(CC1)CC2 [Compound 30]	64.2	> 10000	73.9	> 10000	105	47.6	30.4	–
CS(=O)(=O)Nc1ccc(C(=O)Nc2cc3cccnc3c(N3CCC(F)(F)CC3)n2)c(N2CC3CCC(C3)C2)c1 [Compound 33]	75	> 10000	84.2	> 10000	118	58.5	53.3	F ([8]; PO @30mpk): 108%; AUC ([8]; 30 mg/kg, PO @30mpk): 126 µM·h; Cmax ([8]; 30 mg/kg, PO @30mpk): 6.31 µM; half-life ([8]; 30 mg/kg, PO @30mpk): 134 h
O=C(Nc1cn2ccnc2c(N2CCC(F)(F)CC2)n1)c1ncc(NS(=O)(=O)CCO)cc1N1CCC2(CC1)CC2 [Compound 37]	–	–	–	–	–	–	–	EC50 [2]: > 10000 nM; IC50 ([7]; CCK8, 96 h): 234 nM; IC50 [9]: 11.3 nM; IC50 [4]: > 10000 nM; IC50 [5]: 611 nM
O=C(Nc1cn2c(F)cnc2c(N2CCC(F)(F)CC2)n1)c1ccc(NS(=O)(=O)CCO)cc1N1CC2CCC(C2)C1 [Compound 51]	–	> 10000	35.7	> 10000	54.7	13.7	26.1	F ([8]; PO @30mpk): 67%; AUC ([8]; 30 mg/kg, PO @30mpk): 272 µM·h; Cmax ([8]; 30 mg/kg, PO @30mpk): 14.2 µM; half-life ([8]; 30 mg/kg, PO @30mpk): 62.3 h
CS(=O)(=O)Nc1ccc(C(=O)Nc2cn3ncnc3c(N3CCC(F)(F)CC3)n2)c(N2CC3CCC(C3)C2)c1 [Compound 53]	–	> 10000	44.7	> 10000	170	26.7	32.8	F ([8]; PO @30mpk): 16%; AUC ([8]; 30 mg/kg, PO @30mpk): 78.3 µM·h; Cmax ([8]; 30 mg/kg, PO @30mpk): 4.56 µM; half-life ([8]; 30 mg/kg, PO @30mpk): 13 h
Cn1ncc2cc(NC(=O)c3ccc(NS(=O)(=O)CCO)cc3N3CC4CCC(C4)C3)nc(N3CCC(F)(F)CC3)c21 [Compound 55]	–	> 10000	12.7	> 10000	54.4	4.6	6.8	F ([8]; PO @30mpk): 109%; AUC ([8]; 30 mg/kg, PO @30mpk): 380 µM·h; Cmax ([8]; 30 mg/kg, PO @30mpk): 25.8 µM; half-life ([8]; 30 mg/kg, PO @30mpk): 7.8 h
CS(=O)(=O)Nc1ccc(C(=O)Nc2cc3nccnc3c(N3CCC(F)(F)CC3)n2)c(N2CC3CCC(C3)C2)c1 [Compound 72]	–	> 10000	141	> 10000	330	72.4	66.6	F ([8]; PO @5mpk): 175%; AUC ([8]; 5 mg/kg, PO @5mpk): 66.3 µM·h; Cmax ([8]; 5 mg/kg, PO @5mpk): 5.34 µM; half-life ([8]; 5 mg/kg, PO @5mpk): 6 h

More lines, main results first:

IC50 [1] [nM]	EC50 ([2]; Homo sapiens) [nM]	IC50 [3] [nM]	IC50 ([4]; Homo sapiens) [nM]	IC50 ([5]; Homo sapiens) [nM]	EC50 [6] [nM]	IC50 [7, 10] [nM]	Structure (SMILES)	also measured
167	–	–	–	–	–	–	O=C(Nc1csc(C2CCC(F)(F)CC2)n1)c1ccc(NS(=O)(=O)CCO)cc1N1CCC2(CC1)CC2 [Compound 1]	–
5220	–	–	–	–	–	–	O=C(Nc1nc(N2CCC(F)(F)CC2)nc2ccccc12)c1ccc(NS(=O)(=O)CCO)cc1N1CCC2(CC1)CC2 [Compound 2]	–
2010	–	–	–	–	–	–	Cc1cc2nc(NC(=O)c3ccc(NS(=O)(=O)CCO)cc3N3CCC4(CC3)CC4)nc(N3CCC(F)(F)CC3)c2s1 [Compound 7]	–
53	> 10000	338	> 10000	192	94	–	O=C(Nc1cc2nccn2c(N2CCC(F)(F)CC2)n1)c1ccc(NS(=O)(=O)CCO)cc1N1CCC2(CC1)CC2 [Compound 16]	–
67.6	> 10000	93.8	> 10000	111	64	41.8	O=C(Nc1cn2ccnc2c(N2CCC3(CC2)CC3)n1)c1ccc(NS(=O)(=O)CCO)cc1N1CCC2(CC1)CC2 [Compound 31]	–
29.9	> 10000	45.3	> 10000	46.1	61.8	22.4	CS(=O)(=O)Nc1ccc(C(=O)Nc2cc3cccnc3c(N3CCC(F)(F)CC3)n2)c(N2CCC3(CC2)CC3)c1 [Compound 32]	–
